Source: ChEMBL document CHEMBL3758080, “4-Arylamino-6-nitroquinazolines: Synthesis and their activities against neglected disease leishmaniasis” (Eur J Med Chem, 2016)

Tested on: Leishmania major
Assay: Antileishmanial activity against Leishmania major promastigotes after 72 hrs by Neubauer counting chamber based microscopy
Type: functional, organism-based
Conditions: not given; call rule not given here

| Structure (SMILES) | IC50 |
| --- | --- |
| O=[N+]([O-])c1ccc2ncnc(Nc3cccc(Cl)c3)c2c1 | Not Active |
| O=[N+]([O-])c1ccc2ncnc(Nc3ccc(I)cc3)c2c1 | Not Active |
| COc1cccc(Nc2ncnc3ccc([N+](=O)[O-])cc23)c1 | Not Active |
| O=[N+]([O-])c1ccc2ncnc(Nc3ccc(Cl)cc3Cl)c2c1 | Not Active |
| O=[N+]([O-])c1ccc2ncnc(Nc3cccc(O)c3)c2c1 | Not Active |
| O=[N+]([O-])c1ccc2ncnc(Nc3ccc(Cl)c(Cl)c3)c2c1 | Not Active |

The next lines start with the values.

| IC50 | Structure (SMILES) |
| --- | --- |
| Not Active | O=[N+]([O-])c1ccc2ncnc(Nc3ccccc3)c2c1 |
| Not Active | O=[N+]([O-])c1ccc2ncnc(Nc3ccc(F)cc3)c2c1 |
| Not Active | O=[N+]([O-])c1ccc2ncnc(Nc3ccc(Cl)cc3)c2c1 |
| Not Active | COc1ccc(Nc2ncnc3ccc([N+](=O)[O-])cc23)cc1 |
| Not Active | Cc1ccc(C)c(Nc2ncnc3ccc([N+](=O)[O-])cc23)c1 |
| Not Active | O=[N+]([O-])c1ccc2ncnc(Nc3cc(Cl)ccc3Cl)c2c1 |
| Not Active | COc1cc(OC)c(Nc2ncnc3ccc([N+](=O)[O-])cc23)cc1Cl |

Same assay, conditions: Leishmania major, 72 h; read-out: IC50

| Structure (SMILES) | IC50 |
| --- | --- |
| O=[N+]([O-])c1ccc2ncnc(Nc3cccc(Br)c3)c2c1 | 9.04 µM |
| Cc1ccc(Cl)cc1Nc1ncnc2ccc([N+](=O)[O-])cc12 | 44.9 µM |
| COc1ccc(OC)c(Nc2ncnc3ccc([N+](=O)[O-])cc23)c1 | 12.3 µM |
| CCc1ccc(Nc2ncnc3ccc([N+](=O)[O-])cc23)cc1 | 38.2 µM |
| CSc1cccc(Nc2ncnc3ccc([N+](=O)[O-])cc23)c1 | 19.9 µM |
| O=[N+]([O-])c1ccc2ncnc(Nc3ccc(Br)cc3)c2c1 | 61.5 µM |

Second part, the molecule after the results:

| IC50 | Structure (SMILES) |
| --- | --- |
| 35.9 µM | Cc1ccc(Nc2ncnc3ccc([N+](=O)[O-])cc23)cc1C |
| 4.37 µM | COc1ccccc1Nc1ncnc2ccc([N+](=O)[O-])cc12 |
| 6.53 µM | O=[N+]([O-])c1ccc2ncnc(Nc3ccccc3Cl)c2c1 |
| 1.87 µM | CSc1ccc(Nc2ncnc3ccc([N+](=O)[O-])cc23)cc1 |
| 24 µM | Cc1ccc(Nc2ncnc3ccc([N+](=O)[O-])cc23)cc1 |

Tested on: Leishmania major
Assay: Potency index, ratio IC50 of pentamidine to IC50 of compound for antilieshmanial activity against Leishmania major promastigotes
Type: functional
Conditions: not given

| Structure (SMILES) | Ratio IC50 |
| --- | --- |
| CSc1ccc(Nc2ncnc3ccc([N+](=O)[O-])cc23)cc1 | 3 |
